Data reported in US20220153746A1, “NITROGEN OXIDE-DONATING PDE-5 AND/OR PDE-6 INHIBITOR COMPOUNDS, AND USES THEREOF” (ILDONG PHARMACEUTICAL CO., LTD., priority 2020, published 2022).

Tests used:
[1] = test system: intraocular pressure (IOP) of ocular normotensive rabbits; assay: IOP lowering effect in ocular normotensive rabbits (Example 8; Example 9 Phase 1); format: in vivo, New Zealand White Rabbits (Oryctolagus cuniculus); conditions: for OD IOP Mean: 50 μL/eye once, treated right eye, Day 1
Text: This example illustrates the procedures and results of the intraocular pressure (IOP) lowering effect of compound 18 as compared to Latanoprostene bunod and latanoprost at different concentrations in ocular normotensive rabbits.
Forty (40) male New Zealand white rabbits were divided into 4 groups with 10 animals per group. Animals were then randomly assigned to groups based on body weight.
Latanoprostene bunod ophthalmic solution (LBN, 0.024%) and latanoprost eye drops (0.005%) were used as positive controls and dosed with the same volumes into the right eyes of the tested animals in groups 1 and 2 once.
Compound 18 was instilled into the right eyes of the tested animals in groups 3 (10 mg/mL) and 4 (20 mg/mL) at 50 μL per eye once.
All left eyes of the tested animals in each group were dosed with vehicle solution at 50 μL per eye.
The intraocular pressures (IOPs) were measured once at pre-dose and then once at 1, 2, 4, 6, 8, and 10 hours post dose for each group of animals. FIGS. 1 to 4 show the results from the IOP lowering studies for all four tested groups.
Phase 1: To confirm the IOP lowering effect of test article at different concentrations in ocular normotensive rabbits. Compound 18 was instilled into right eyes of animals in groups 3 and 4, 50 μL/eye, once. 0.024% latanoprostene bunod ophthalmic solution (LBN) and 0.005% latanoprost eye drops were served as positive control and be dosed with same volume into right eyes of groups 1 and 2 animals once. All left eyes of animals in each group were dosed with vehicle once, 50 μL/eye. IOPs was measured once at pre-dose and once at 1, 2, 4, 6, 8, 10 hours post dose. […]
(§1) Delivery Method: Drawed 50 μL of the articles with a pipette, pulled out the lower eyelid of the animal, dropped the article into the conjunctiva sac, and gently closed the upper and lower eyelids for a few times.
(§2) Species/Strain: New Zealand White Rabbits (Oryctolagus cuniculus). The New Zealand White Rabbit was used in this study. This is commonly used specie for non-clinical studies of ophthalmic formulations, for which there is a large historical database, and the relative large cornea size is suitable for topical operations.
(§3) Restrained the animal, made the testing eye perpendicular to the probe of the TonoVet tonometer, measured the IOP for at least three times until the values are stable. The mean of the last three stable values were calculated as the final IOP value.
IOP Measurement in Ocular Normotensive Rabbits: IOP was measured at pre-dose and once at 1, 2, 4, 6, 8, 10 hours post dose in study phase 1.

[2] = test system: intraocular pressure (IOP) of ocular hypertensive rabbits; assay: IOP lowering effect in ocular hypertensive rabbits (Example 9 Phase 2); format: in vivo; conditions: for Reduction ratio of IOP / OD IOP Mean: 50 μL/eye t.i.d.; for Reduction ratio of IOP: treated right vs vehicle left eye; for IOP compared with the vehicle treated eyes: p≤0.05; for OD IOP Mean: treated right eye, Day 10/11
Procedure: Phase 2: To confirm the IOP lowering effect of test article at different concentrations in ocular hypertensive rabbits. Modeling was induced by intracameral injection of elastic substance in both eyes, once. Then, positive control articles/test article was instilled into right eyes of animals, 50 μL/eye, once at 5-15 minutes, 3 and 6 hours post modeling, respectively. All left eyes of animals in each group were dosed with vehicle, 50 μL/eye, once at 5-15 minutes, 3 and 6 hours post modeling, respectively. IOPs was measured at pre-modeling, 1, 2, 4, 6, 8, and 10 hours post first dose.
For further analysis of the IOP reduction effect, the IOP reduction ratio was calculated using the difference between the TA/PA treated and vehicle treated eyes at each time points post first dosing. The results were tabulated below:
Animals were sedated by Ketamine (30˜50 mg/kg) and anesthetized by Xylazine (5˜10 mg/kg), intramuscularly. Disinfected the conjunctival sac by washing with 5% povidone iodine, and then washed the conjunctival sac with saline. Fixed the eyeball with forceps, then inserted needle from the temporal limbus horizontally, avoided damaging the corneal endothelial and iris. Held the syringe still and injected the Medical Sodium Hyaluronate Gel slowly into the anterior chamber, 100 μl/eye, waited for at least 10 seconds, then pulled out the needle slowly. Pressed the injection spot immediately with swab for at least 3 minutes, blocked the injection spot with one drop of tissue adhesive.
For Phase 2, 50 μL of 1% and 2% Compound 18, 0.024% latanoprostene bunod ophthalmic solution and 0.005% latanoprost eye drops were instilled into the right eyes and the same volume of Vehicle (Gel-blank) into the left eyes in Group 5 to Group 8 of Ocular Hypertensive Rabbits, 50 μL/eye, three times. The first day of dosing in phase 1 was designated as Day 1.
as §1, §2, §3
IOP Measurement in Ocular Hypertensive Rabbits: IOP was measured at pre-modeling, and once at 1, 2, 4, 6, 8, and 10 hours post first daily dose in study phase 2.

CCCc1nn(C)c2c(=O)[nH]c(-c3cc(S(=O)(=O)N4CC(CCCO[N+](=O)[O-])C4)ccc3OCC)nc12 [Compound 18, 3-(1-((4-ethoxy-3-(1-methyl-7-oxo-3-propyl-6,7-dihydro-1H-pyrazolo[4,3-d]pyrimidin-5-yl)phenyl)sulfonyl)azetidin-3-yl)propyl nitrate]
IOP after administration ([1]; Example 8, both 10 mg/mL and 20 mg/mL doses): significantly lower the IOP
IOP compared with the vehicle treated eyes ([1]; Phase 1, 10 mg/mL, at 1, 2, 4 h post dosing, p≤0.05): significant decreased IOPs
IOP compared with the vehicle treated eyes ([1]; Phase 1, 20 mg/mL, at 1, 2, 4, 8, 10 h post dosing (8, 10 h, p≤0.05; 1, 4 h, p≤0.01; 2 h, p≤0.001)): significant decreased IOPs
OD IOP Mean ([1]; Phase 1 Group 3, 10 mg/mL (1%), 1 h post dose): 12.50
OD IOP Mean ([1]; Phase 1 Group 3, 10 mg/mL (1%), 2 h post dose): 13.30
OD IOP Mean ([1]; Phase 1 Group 3, 10 mg/mL (1%), 4 h post dose): 14.17
OD IOP Mean ([1]; Phase 1 Group 3, 10 mg/mL (1%), 6 h post dose): 15.27
OD IOP Mean ([1]; Phase 1 Group 3, 10 mg/mL (1%), 8 h post dose): 15.57
OD IOP Mean ([1]; Phase 1 Group 3, 10 mg/mL (1%), 10 h post dose): 16.53
OD IOP Mean ([1]; Phase 1 Group 4, 20 mg/mL (2%), 1 h post dose): 11.47
OD IOP Mean ([1]; Phase 1 Group 4, 20 mg/mL (2%), 2 h post dose): 11.93
OD IOP Mean ([1]; Phase 1 Group 4, 20 mg/mL (2%), 4 h post dose): 13.70
OD IOP Mean ([1]; Phase 1 Group 4, 20 mg/mL (2%), 6 h post dose): 14.33
OD IOP Mean ([1]; Phase 1 Group 4, 20 mg/mL (2%), 8 h post dose): 15.20
OD IOP Mean ([1]; Phase 1 Group 4, 20 mg/mL (2%), 10 h post dose): 15.40
tolerability ([2]; Example 9, topical instillation in rabbits): well tolerated
Reduction ratio of IOP ([2]; Group 7, 10 mg/mL, 1 h post first dose): 23.36%
Reduction ratio of IOP ([2]; Group 7, 10 mg/mL, 2 h post first dose): 35.65%
Reduction ratio of IOP ([2]; Group 7, 10 mg/mL, 4 h post first dose): 21.68%
Reduction ratio of IOP ([2]; Group 7, 10 mg/mL, 6 h post first dose): 28.06%
Reduction ratio of IOP ([2]; Group 7, 10 mg/mL, 8 h post first dose): 23.97%
Reduction ratio of IOP ([2]; Group 7, 10 mg/mL, 10 h post first dose): 21.67%
Reduction ratio of IOP ([2]; Group 8, 20 mg/mL, 1 h post first dose): 45.31%
Reduction ratio of IOP ([2]; Group 8, 20 mg/mL, 2 h post first dose): 34.59%
Reduction ratio of IOP ([2]; Group 8, 20 mg/mL, 4 h post first dose): 26.95%
Reduction ratio of IOP ([2]; Group 8, 20 mg/mL, 6 h post first dose): 18.04%
Reduction ratio of IOP ([2]; Group 8, 20 mg/mL, 8 h post first dose): 10.85%
Reduction ratio of IOP ([2]; Group 8, 20 mg/mL, 10 h post first dose): −5.73%
IOP compared with the vehicle treated eyes ([2]; Phase 2, 10 mg/mL, at 2 h post dosing): significant decreased IOPs
IOP compared with the vehicle treated eyes ([2]; Phase 2, 20 mg/mL, at 1 h post dosing): significant decreased IOPs
OD IOP Mean ([2]; Phase 2 Group 7, 10 mg/mL (1%), 1 h post first dose): 9.19
OD IOP Mean ([2]; Phase 2 Group 7, 10 mg/mL (1%), 2 h post first dose): 13.80
OD IOP Mean ([2]; Phase 2 Group 7, 10 mg/mL (1%), 4 h post first dose): 20.47
OD IOP Mean ([2]; Phase 2 Group 7, 10 mg/mL (1%), 6 h post first dose): 21.53
OD IOP Mean ([2]; Phase 2 Group 7, 10 mg/mL (1%), 8 h post first dose): 17.82
OD IOP Mean ([2]; Phase 2 Group 7, 10 mg/mL (1%), 10 h post first dose): 15.22
OD IOP Mean ([2]; Phase 2 Group 8, 20 mg/mL (2%), 1 h post first dose): 11.74
OD IOP Mean ([2]; Phase 2 Group 8, 20 mg/mL (2%), 2 h post first dose): 19.67
OD IOP Mean ([2]; Phase 2 Group 8, 20 mg/mL (2%), 4 h post first dose): 25.57
OD IOP Mean ([2]; Phase 2 Group 8, 20 mg/mL (2%), 6 h post first dose): 28.93
OD IOP Mean ([2]; Phase 2 Group 8, 20 mg/mL (2%), 8 h post first dose): 27.40
OD IOP Mean ([2]; Phase 2 Group 8, 20 mg/mL (2%), 10 h post first dose): 22.63
